Values of other authors as cited in patent publication US20230330076A1, “CONTROLLED RELEASE FORMULATIONS OF FLAVOXATE AND PROCESS FOR PREPARATION THEREOF” (priority 2021, published 2023).
Where two headings read alike, the source gives them in different places.

Tests used:
[1] = not given; remark: listed apart in the source
[2] = test system: α- and β-noradrenergic, muscarinic, serotoninergic and opiate receptors, and calcium binding sites; settings: rat brain tissue

Q: Which “apparent volume of distribution” value (in vivo, iv, 100 mg) does the source give for 3-methylflavone carboxylic acid [MFCA] here?
A: 0.20 L/kg

Q: Which results are given for Cc1c(-c2ccccc2)oc2c(C(=O)OCCN3CCCCC3)cccc2c1=O.Cl [Flavoxate hydrochloride, 2-piperidinoethyl 3-methylflavone-8-carboxylate hydrochloride]?
A: time of peak level of MFCA ([1]; single oral 200 mg dose): 30 to 60 min; time of peak level of MFCA ([1]; single oral 400 mg dose): around two hours; AUC for the 400 mg dose relative to the 200 mg dose ([1]; single oral dosing): approximately twice as large; dose excreted as MFCA ([1]; single oral dosing, within 12 hours): About 50%; T½ (IV dose equimolar to 100 mg): 1.39 h; apparent volume of distribution (IV dose equimolar to 100 mg): 2.89 L/kg; dose excreted as MFCA (IV dose equimolar to 100 mg, urine): 47%; binding activity on receptors [2]: only weak binding activity
